Data published in patent US12291518B2, “Thyroid hormone receptor agonists and use thereof” (Eccogene Inc., priority 2020, dated 2025).

Columns and labels:
[1] = target: T1, THR alpha-LBD (Homo sapiens, UniProt P10827); test: THR-α Coactivator Peptide Recruitment Assay (LanthaScreen TR-FRET); type: biochemical; details: TR-FRET coactivator recruitment, THR alpha-LBD 0.25 nM; for EC50: read-out: THRα EC50
T1 construct: except that THR alpha-LBD of a final concentration 0.25 nM was used; purchased Invitrogen PV4687
T1 sequence (P10827 163-410 isoform P10827-2 limits assumed, other chains not shown): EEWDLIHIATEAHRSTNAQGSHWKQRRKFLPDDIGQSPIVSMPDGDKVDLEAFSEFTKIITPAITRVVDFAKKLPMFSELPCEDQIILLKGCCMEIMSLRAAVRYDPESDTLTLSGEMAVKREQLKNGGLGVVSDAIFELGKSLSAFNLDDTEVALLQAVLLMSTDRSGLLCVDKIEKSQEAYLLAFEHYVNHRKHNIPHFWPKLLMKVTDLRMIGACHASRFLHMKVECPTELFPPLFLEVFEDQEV
In short: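 TR-FRET coactivator recruitment with THR alpha-LBD at 0.25 nM final, Fluorescein-SRC2-2 peptide 0.1 nM and Tb-labeled anti-GST antibody 2 nM; 2 h incubation at room temperature. 520/495 nm emission ratio fitted to a four-parameter sigmoidal curve to give EC50.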

[2] = target: T2, THR beta-LBD (Homo sapiens, UniProt P10828); test: THR-β Coactivator Peptide Recruitment Assay (LanthaScreen TR-FRET); type: biochemical; details: TR-FRET coactivator recruitment, THR beta-LBD 0.5 nM; for EC50: read-out: THRβ EC50
T2 construct: THR beta-LBD (the final concentration is 0.5 nM) was added to the 384-well assay plate; purchased Invitrogen PV4686
T2 sequence (P10828 217-461 limits assumed): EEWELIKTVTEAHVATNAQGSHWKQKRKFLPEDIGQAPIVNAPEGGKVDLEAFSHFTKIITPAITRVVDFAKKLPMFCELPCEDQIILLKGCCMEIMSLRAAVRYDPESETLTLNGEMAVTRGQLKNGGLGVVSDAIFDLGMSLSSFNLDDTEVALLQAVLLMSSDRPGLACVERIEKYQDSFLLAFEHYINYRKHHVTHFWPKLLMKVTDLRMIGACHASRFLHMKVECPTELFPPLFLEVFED
In short: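 GST-tagged THR beta-LBD (0.5 nM) with test compound recruits fluorescein-SRC2-2 coactivator peptide (0.1 nM), detected with Tb-anti-GST antibody (2 nM).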

With `O=c1[nH]c(=O)n(-c2cc(Cl)c(Oc3ccc(O)c(S(=O)(=O)NC4CS(=O)(=O)C4)c3)c(Cl)c2)nc1C(F)F` [Compound 83, 5-(2,6-dichloro-4-(6-(difluoromethyl)-3,5-dioxo-4,5-dihydro-1,2,4-triazin-2(3H)-yl)phenoxy)-N-(1,1-dioxidothietan-3-yl)-2-hydroxybenzenesulfonamide] the “THRα Emax” value [1] was “A (85~110)”, the EC50 [1] was 2 to 200 nM and the “THRβ Emax” value [2] was “A (90~110)”. The EC50 [2] was under 2 nM.

In the case of `O=C(NCC1(NS(=O)(=O)c2cc(Oc3c(Cl)cc(-n4nc(C(F)F)c(=O)[nH]c4=O)cc3Cl)ccc2O)CC1)C1CC1` [Compound 84, N-[[1-[[5-[2,6-dichloro-4-[6-(difluoromethyl)-3,5-dioxo-1,2,4-triazin-2-yl]phenoxy]-2-hydroxy-phenyl]sulfonylamino]cyclopropyl]methyl]cyclopropane carboxamide], the “THRα Emax” value [1] is reported as “A (85~110)”, the EC50 [1] is reported as 2 to 200 nM and the “THRβ Emax” value [2] is reported as “A (90~110)”. For the same compound, the EC50 [2] was under 2 nM.

`O=C(NC12CC(NS(=O)(=O)c3cc(Oc4c(Cl)cc(-n5nc(C(F)F)c(=O)[nH]c5=O)cc4Cl)ccc3O)(C1)C2)C1CC1` [Compound 85, N-(3-((5-(2,6-dichloro-4-(6-(difluoromethyl)-3,5-dioxo-4,5-dihydro-1,2,4-triazin-2(3H)-yl)phenoxy)-2-hydroxyphenyl)sulfonamido)bicyclo[1.1.1]pentan-1-yl)cyclopropanecarboxamide] was tested, and the “THRα Emax” value [1] was “C (<40)”, the EC50 [1] was over 1000 nM and the “THRβ Emax” value [2] was “C (<75)”. It also gave an EC50 [2] of over 100 nM.

`O=C(N[C@H]1C[C@@H](NS(=O)(=O)c2cc(Oc3c(Cl)cc(-n4nc(C(F)F)c(=O)[nH]c4=O)cc3Cl)ccc2O)C1)C1CC1` [Compound 86, N-((1s,3s)-3-((5-(2,6-dichloro-4-(6-(difluoromethyl)-3,5-dioxo-4,5-dihydro-1,2,4-triazin-2(3H)-yl)phenoxy)-2-hydroxyphenyl)sulfonamido)cyclobutyl) cyclopropanecarboxamide] was tested, and the “THRα Emax” value [1] was “C (<40)”, the EC50 [1] was 200 to 1000 nM and the “THRβ Emax” value [2] was “C (<75)”. For the same compound, the EC50 [2] was 2 to 20 nM.

`O=C(NCC(F)F)C1(NS(=O)(=O)c2cc(Oc3c(Cl)cc(-n4nc(C(F)F)c(=O)[nH]c4=O)cc3Cl)ccc2O)CC1` [Compound 87, 1-[[5-[2,6-dichloro-4-[6-(difluoromethyl)-3,5-dioxo-1,2,4-triazin-2-yl]phenoxy]-2-hydroxy-phenyl]sulfonylamino]-N-(2,2-difluoroethyl) cyclopropanecarboxamide] was tested, and the “THRα Emax” value [1] was “B (40~85)”, the EC50 [1] was 200 to 1000 nM and the “THRβ Emax” value [2] was “B (75~90)”. It also gave an EC50 [2] of under 2 nM.

In the case of `O=C(CNS(=O)(=O)c1cc(Oc2c(Cl)cc(-n3nc(C(F)F)c(=O)[nH]c3=O)cc2Cl)ccc1O)NCC(F)F` [Compound 88, 2-((5-(2,6-dichloro-4-(6-(difluoromethyl)-3,5-dioxo-4,5-dihydro-1,2,4-triazin-2(3H)-yl)phenoxy)-2-hydroxyphenyl)sulfonamido)-N-(2,2-difluoroethyl)acetamide], the “THRα Emax” value [1] is reported as “B (40~85)”, the EC50 [1] is reported as 200 to 1000 nM and the “THRβ Emax” value [2] is reported as “B (75~90)”. It also gave an EC50 [2] of 20 to 100 nM.

`O=C(NC1CCC1)C1(NS(=O)(=O)c2cc(Oc3c(Cl)cc(-n4nc(C(F)F)c(=O)[nH]c4=O)cc3Cl)ccc2O)CC1` [Compound 89, N-cyclobutyl-1-((5-(2,6-dichloro-4-(6-(difluoromethyl)-3,5-dioxo-4,5-dihydro-1,2,4-triazin-2(3H)-yl)phenoxy)-2-hydroxyphenyl)sulfonamido)cyclopropane-1-carboxamide] was tested, and the “THRα Emax” value [1] was “A (85~110)”, the EC50 [1] was 2 to 200 nM and the “THRβ Emax” value [2] was “B (75~90)”. It also gave an EC50 [2] of under 2 nM.

With `O=C(NC1CCCC1)C1(NS(=O)(=O)c2cc(Oc3c(Cl)cc(-n4nc(C(F)F)c(=O)[nH]c4=O)cc3Cl)ccc2O)CC1` [Compound 90, N-cyclopentyl-1-((5-(2,6-dichloro-4-(6-(difluoromethyl)-3,5-dioxo-4,5-dihydro-1,2,4-triazin-2(3H)-yl)phenoxy)-2-hydroxyphenyl)sulfonamido)cyclopropane-1-carboxamide] the “THRα Emax” value [1] was “A (85~110)”, the EC50 [1] was 2 to 200 nM and the “THRβ Emax” value [2] was “B (75~90)”. It also gave an EC50 [2] of under 2 nM.

With `O=C(N1CCCC1)C1(NS(=O)(=O)c2cc(Oc3c(Cl)cc(-n4nc(C(F)F)c(=O)[nH]c4=O)cc3Cl)ccc2O)CC1` [Compound 91, 5-(2,6-dichloro-4-(6-(difluoromethyl)-3,5-dioxo-4,5-dihydro-1,2,4-triazin-2(3H)-yl)phenoxy)-2-hydroxy-N-(1-(pyrrolidine-1-carbonyl)cyclopropyl)benzenesulfonamide] the “THRα Emax” value [1] was “B (40~85)”, the EC50 [1] was 200 to 1000 nM and the “THRβ Emax” value [2] was “A (90~110)”. The EC50 [2] was 2 to 20 nM.

With `O=C(NC1CC1)C1(NS(=O)(=O)c2cc(Oc3c(Cl)cc(-n4nc(C(F)F)c(=O)[nH]c4=O)cc3Cl)ccc2O)CCC1` [Compound 92, N-cyclopropyl-1-((5-(2,6-dichloro-4-(6-(difluoromethyl)-3,5-dioxo-4,5-dihydro-1,2,4-triazin-2(3H)-yl)phenoxy)-2-hydroxyphenyl)sulfonamido)cyclobutane-1-carboxamide] the “THRα Emax” value [1] was “B (40~85)”, the EC50 [1] was 200 to 1000 nM and the “THRβ Emax” value [2] was “B (75~90)”. For the same compound, the EC50 [2] was 2 to 20 nM.

`O=C(NC1CC1)C1(NS(=O)(=O)c2cc(Oc3c(Cl)cc(-n4nc(C(F)(F)F)c(=O)[nH]c4=O)cc3Cl)ccc2O)CC1` [Compound 93, N-cyclopropyl-1-((5-(2,6-dichloro-4-(3,5-dioxo-6-(trifluoromethyl)-4,5-dihydro-1,2,4-triazin-2(3H)-yl)phenoxy)-2-hydroxyphenyl)sulfonamido)cyclopropane-1-carboxamide] was tested, and the “THRα Emax” value [1] was “C (<40)”, the EC50 [1] was over 1000 nM and the “THRβ Emax” value [2] was “B (75~90)”. It also gave an EC50 [2] of 20 to 100 nM.

For `CS(=O)(=O)CC1(NS(=O)(=O)c2cc(Oc3c(Cl)cc(-n4nc(C(F)F)c(=O)[nH]c4=O)cc3Cl)ccc2O)CC1` [Compound 94, 5-[2,6-dichloro-4-[6-(difluoromethyl)-3,5-dioxo-1,2,4-triazin-2-yl]phenoxy]-2-hydroxy-N-[1-(methylsulfonylmethyl)cyclopropyl] benzene sulfonamide], the “THRα Emax” value [1] was “B (40~85)”, the EC50 [1] was 200 to 1000 nM and the “THRβ Emax” value [2] was “B (75~90)”. For the same compound, the EC50 [2] was 2 to 20 nM.

In the case of `CS(=O)(=O)c1cc(Oc2c(Cl)cc(-n3nc(C(F)F)c(=O)[nH]c3=O)cc2Cl)ccc1O` [Compound 95], the “THRα Emax” value [1] is reported as “A (85~110)”, the EC50 [1] is reported as under 2 nM and the “THRβ Emax” value [2] is reported as “A (90~110)”. For the same compound, the EC50 [2] was under 2 nM.

In the case of `O=c1[nH]c(=O)n(-c2cc(Cl)c(Oc3ccc(O)c(S(=O)(=O)NC4C[S+]([O-])C4)c3)c(Cl)c2)nc1C(F)F` (centres unmarked) [Compound 96, 5-[2,6-dichloro-4-[6-(difluoromethyl)-3,5-dioxo-1,2,4-triazin-2-yl]phenoxy]-2-hydroxy-N-(1-oxothietan-3-yl) benzenesulfonamide], the “THRα Emax” value [1] is reported as “A (85~110)”, the EC50 [1] is reported as 200 to 1000 nM and the “THRβ Emax” value [2] is reported as “A (90~110)”. For the same compound, the EC50 [2] was 20 to 100 nM.

For `O=c1[nH]c(=O)n(-c2cc(Cl)c(Cc3ccc(O)c(S(=O)(=O)N[C@H]4C[C@H](O)C4)c3)c(Cl)c2)nc1C(F)F` [Compound 97, 5-[[2,6-dichloro-4-[6-(difluoromethyl)-3,5-dioxo-1,2,4-triazin-2-yl]phenyl]methyl]-2-hydroxy-N-(3-hydroxycyclobutyl)benzenesulfonamide], the “THRα Emax” value [1] was “A (85~110)”, the EC50 [1] was 2 to 200 nM and the “THRβ Emax” value [2] was “A (90~110)”. It also gave an EC50 [2] of under 2 nM.

With `O=C(N[C@H]1CCOC1)c1cc(Oc2c(Cl)cc(-n3nc(C(F)F)c(=O)[nH]c3=O)cc2Cl)ccc1O` [Compound 98, (S)-5-(2,6-dichloro-4-(6-(difluoromethyl)-3,5-dioxo-4,5-dihydro-1,2,4-triazin-2 (3H)-yl)phenoxy)-2-hydroxy-N-(tetrahydrofuran-3-yl) benzamide] the “THRα Emax” value [1] was “B (40~85)”, the EC50 [1] was 2 to 200 nM and the “THRβ Emax” value [2] was “B (75~90)”. For the same compound, the EC50 [2] was 2 to 20 nM.

With `CN([C@H]1C[C@H](O)C1)S(=O)(=O)c1cc(Oc2c(Cl)cc(-n3nc(C(F)F)c(=O)[nH]c3=O)cc2Cl)ccc1O` [Compound 99] the “THRα Emax” value [1] was “A (85~110)”, the EC50 [1] was 2 to 200 nM and the “THRβ Emax” value [2] was “B (75~90)”. For the same compound, the EC50 [2] was 2 to 20 nM.

For `O=c1[nH]c(=O)n(-c2cc(Cl)c(Oc3ccc(O)c(S(=O)(=O)[C@H]4C[C@@H](O)C4)c3)c(Cl)c2)nc1C(F)F` [Compound 100, 2-(3,5-dichloro-4-(4-hydroxy-3-(((1s,3s)-3-hydroxycyclobutyl)sulfonyl)phenoxy)phenyl)-6-(difluoromethyl)-1,2,4-triazine-3,5(2H,4H)-dione], the “THRα Emax” value [1] was “A (85~110)”, the EC50 [1] was 2 to 200 nM and the “THRβ Emax” value [2] was “A (90~110)”. It also gave an EC50 [2] of under 2 nM.

With `O=C(NCC1(NS(=O)(=O)c2cc(Oc3c(Cl)cc(-n4nc(C(F)F)c(=O)[nH]c4=O)cc3Cl)ncc2O)CC1)C1CC1` [Compound 101] the “THRα Emax” value [1] was “B (40~85)”, the EC50 [1] was 200 to 1000 nM and the “THRβ Emax” value [2] was “B (75~90)”. It also gave an EC50 [2] of 2 to 20 nM.

In the case of `CNS(=O)(=O)c1cc(Oc2c(Cl)cc(-n3nc(C#N)c(=O)[nH]c3=O)cc2Cl)ncc1O` [Compound 102, 2-(2,6-dichloro-4-(6-cyano-3,5-dioxo-4,5-dihydro-1,2,4-triazin-2(3H)-yl)phenoxy)-5-hydroxy-N-methylpyridine-4-sulfonamide], the “THRα Emax” value [1] is reported as “A (85~110)”, the EC50 [1] is reported as 200 to 1000 nM and the “THRβ Emax” value [2] is reported as “B (75~90)”. The EC50 [2] was 2 to 20 nM.
